Assay results reported in patent EP2918282A1, “Pharmaceutical composition for the treatment of virus diseases, such as flu” (OOO "CytoNIR", priority 2014, dated 2015).

Test system: Grippevirus A/Vladivostok/2/09 (H1N1)
Test: Survival of mice infected with a lethal dose of influenza virus, peroral treatment for 5 days
Type: in vivo, Mäuse
Conditions: virus strain resistant to Oseltamyvir; 30 mg/kg
From the text: Die Wirksamkeit des Mittels wurde an einem Modell der Überlebensfähigkeit von angesteckten Versuchstieren geprüft. Die Versuchstiere wurden mit einer tödlichen Dosis des Grippevirus A/Vladivostok/2/09 (H1N1) angesteckt. Während der Forschung wurde das erfindungsgemäße Mittel 5 Tage lang peroral verabreicht.
Als Versuchstiere wurden weiße männliche Auszucht-Mäuse mit einem Körpergewicht von 16 - 18 g aus der Aufzuchtstation Rappolovo der Russischen Akademie der medizinischen Wissenschaften verwendet. Vor der Prüfung wurden die Versuchstiere einer Quarantäne in einem Vivarium im Laufe einer Woche unterzogen. Die Versuchstiere wurden unter genormten Klima-Bedingungen mit ausgewogener Fütterung gehalten. Jede Gruppe enthielt je 30 Versuchstiere.
Um eine versuchsmäßige Grippe-Infektion zu simulieren, wurde ein bestimmter Virusstamm eingesetzt. Die Versuchstiere wurden mit dem A/Vladivostok/2/09 (H1N1)-Virus in Mengen von 1 und 10 DL50 intranasal angesteckt.
Die Behandlung der angesteckten Mäuse wurde 24 Stunden nach der Ansteckung begonnen. Die Präparate wurden intragastrisch mittels einer Sonde verabreicht. Bei diesen Präparaten handelte es sich um eine Lösung in einer physiologischen Kochsalzlösung. Die Dosis des Arzneimittels wurde pro ein kg des Körpergewichts des Tieres berechnet. Die Behandlung wurde im Laufe von 5 Tagen vorgenommen. […]

CCOC(=O)C1=C[C@@H](OC(CC)CC)[C@H](NC(C)=O)[C@@H](N)C1 [Tamiflu, Oseltamyvir]
Schutzsteigerung: keine zuverlässige Schutzsteigerung
